C[C@H]1[C@H](OC(=O)CCC(=O)O)O[C@@H]2O[C@@]3(C)CC[C@H]4[C@H](C)CC[C@@H]1[C@@]24OO3
Conditions	solubility (mole fraction)
in ethanol, 283.06 K	0.0113
in ethanol, 288.14 K	0.0136
in ethanol, 293.19 K	0.0168
in ethanol, 298.24 K	0.0208
in ethanol, 303.21 K	0.0263
in ethanol, 308.16 K	0.0334
in ethanol, 313.14 K	0.0423
in ethanol, 318.22 K	0.0536
in ethanol, 323.2 K	0.0657
in ethyl acetate, 283.17 K	0.0199
in ethyl acetate, 288.17 K	0.0221
in ethyl acetate, 293.16 K	0.0246
in ethyl acetate, 298.14 K	0.0278
in ethyl acetate, 303.17 K	0.0309
in ethyl acetate, 308.14 K	0.0344
in ethyl acetate, 313.17 K	0.0382
in ethyl acetate, 318.16 K	0.0423
in ethyl acetate, 323.19 K	0.0473
in isobutanol, 283.14 K	0.00543
in isobutanol, 288.07 K	0.00698
in isobutanol, 293.14 K	0.00912
in isobutanol, 298.1 K	0.0118
in isobutanol, 303.05 K	0.0155
in isobutanol, 308.08 K	0.0196
in isobutanol, 313.07 K	0.0252
in isobutanol, 318.05 K	0.0325
in isobutanol, 323.15 K	0.0408
in isopentanol, 283.16 K	0.00573
in isopentanol, 288.17 K	0.00721
in isopentanol, 293.14 K	0.00915
in isopentanol, 298.16 K	0.0119
in isopentanol, 303.16 K	0.0151
in isopentanol, 308.14 K	0.0194
in isopentanol, 313.17 K	0.0244
in isopentanol, 318.16 K	0.031
in isopentanol, 323.16 K	0.0397
in isopropanol, 283.06 K	0.00541
in isopropanol, 288.14 K	0.00717
in isopropanol, 293.19 K	0.00965
in isopropanol, 298.24 K	0.012
in isopropanol, 303.21 K	0.016
in isopropanol, 308.16 K	0.0209
in isopropanol, 313.14 K	0.0276
in isopropanol, 318.22 K	0.0362
in isopropanol, 323.2 K	0.047
in isopropyl acetate, 283.17 K	0.0122
in isopropyl acetate, 288.19 K	0.0135
in isopropyl acetate, 293.2 K	0.0149
in isopropyl acetate, 298.14 K	0.0167
in isopropyl acetate, 303.19 K	0.0186
in isopropyl acetate, 308.16 K	0.0206
in isopropyl acetate, 313.14 K	0.0229
in isopropyl acetate, 318.14 K	0.0258
in isopropyl acetate, 323.2 K	0.029
in methyl propionate, 283.19 K	0.0207
in methyl propionate, 288.22 K	0.0232
in methyl propionate, 293.23 K	0.0258
in methyl propionate, 298.17 K	0.0286
in methyl propionate, 303.23 K	0.0318
in methyl propionate, 308.14 K	0.0355
in methyl propionate, 313.24 K	0.0395
in methyl propionate, 318.16 K	0.0442
in methyl propionate, 323.18 K	0.0497
in n-butanol, 283.14 K	0.00719
in n-butanol, 288.07 K	0.00886
in n-butanol, 293.14 K	0.0112
in n-butanol, 298.1 K	0.0143
in n-butanol, 303.05 K	0.0181
in n-butanol, 308.08 K	0.0233
in n-butanol, 313.07 K	0.0298
in n-butanol, 318.05 K	0.0379
in n-butanol, 323.15 K	0.0485
in n-butyl acetate, 283.17 K	0.012
in n-butyl acetate, 288.19 K	0.0135
in n-butyl acetate, 293.2 K	0.015
in n-butyl acetate, 298.14 K	0.0168
in n-butyl acetate, 303.19 K	0.0191
in n-butyl acetate, 308.16 K	0.0213
in n-butyl acetate, 313.14 K	0.0237
in n-butyl acetate, 318.14 K	0.0269
in n-butyl acetate, 323.2 K	0.0304
in n-pentanol, 283.23 K	0.0111
in n-pentanol, 288.23 K	0.0137
in n-pentanol, 293.29 K	0.017
in n-pentanol, 298.5 K	0.0216
in n-pentanol, 303.24 K	0.0266
in n-pentanol, 308.02 K	0.0328
in n-pentanol, 313.08 K	0.0408
in n-pentanol, 318.05 K	0.0491
in n-pentanol, 323.1 K	0.0594
in n-pentyl acetate, 283.14 K	0.00918
in n-pentyl acetate, 288.24 K	0.0104
in n-pentyl acetate, 293.3 K	0.0117
in n-pentyl acetate, 298.28 K	0.0133
in n-pentyl acetate, 303.24 K	0.0149
in n-pentyl acetate, 308.22 K	0.0168
in n-pentyl acetate, 313.13 K	0.0191
in n-pentyl acetate, 318.18 K	0.0216
in n-pentyl acetate, 323.24 K	0.0244
in n-propanol, 283.14 K	0.00832
in n-propanol, 288.07 K	0.0103
in n-propanol, 293.14 K	0.013
in n-propanol, 298.08 K	0.0163
in n-propanol, 303.02 K	0.0207
in n-propanol, 308.05 K	0.0264
in n-propanol, 313.03 K	0.034
in n-propanol, 318.05 K	0.0427
in n-propanol, 323.05 K	0.0542
in n-propyl acetate, 283.16 K	0.0159
in n-propyl acetate, 288.24 K	0.0176
in n-propyl acetate, 293.16 K	0.0194
in n-propyl acetate, 298.18 K	0.0216
in n-propyl acetate, 303.16 K	0.024
in n-propyl acetate, 308.16 K	0.0269
in n-propyl acetate, 313.18 K	0.0302
in n-propyl acetate, 318.16 K	0.0336
in n-propyl acetate, 323.16 K	0.0375

— BigSolDB 2.1
